Measurements as given in ChEMBL document CHEMBL5729525, “Therapeutic compounds and methods of use thereof” (2023).

Biological target: Protein cereblon (Homo sapiens, UniProt Q96SW2)
Assay: Fluorescence Binding Assay: Fluorescence quenching end point measurements were performed in black polystyrene 384-plates on Tecan Safire monochromator reader with the following settings: excitation 280 nm; excitation bandwidth 10.0 nm; emission collection 340 nm; emission bandwidth 20.0 nm; high sensitivity flash mode; integration time 40 μS; delay 0 […]. All measurements were done in duplicates; GraphPad Prism 5.03 was used for data evaluation, curve fitting, plotting and determination of IC50 values.Serial dilutions of each tested ligands were mixed with truncated CRBN (319-427) to a final volume of 25 μL in the assay buffer (20 mM sodium phosphate buffer, pH 6.5, with 150 mM sodium chloride). The final concentration of CRBN in all assay will be 5-10 μM with DMSO level at 4%. A control lanes were prepared with only tested ligands without the addition of CRBN, top up with assay buffer to 25 μL. Plates were incubated for 5 minutes and analyzed using the monochromator plate reader.

Protein cereblon, sequence (Q96SW2 whole entry, the tested form may be a part): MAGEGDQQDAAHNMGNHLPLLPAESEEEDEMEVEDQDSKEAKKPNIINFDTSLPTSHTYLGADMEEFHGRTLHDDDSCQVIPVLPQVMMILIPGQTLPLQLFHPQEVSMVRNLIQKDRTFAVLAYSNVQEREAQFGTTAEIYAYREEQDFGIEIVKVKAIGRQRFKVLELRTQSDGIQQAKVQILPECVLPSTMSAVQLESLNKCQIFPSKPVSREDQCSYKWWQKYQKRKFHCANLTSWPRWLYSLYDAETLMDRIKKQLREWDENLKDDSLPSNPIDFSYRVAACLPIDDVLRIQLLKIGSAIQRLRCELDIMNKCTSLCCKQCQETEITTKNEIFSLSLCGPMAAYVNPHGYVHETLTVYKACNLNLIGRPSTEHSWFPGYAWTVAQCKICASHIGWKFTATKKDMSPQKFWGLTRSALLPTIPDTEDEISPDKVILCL

Nc1ccc(-c2ccc3c(c2)CC(=O)N3)cn1
IC50: > 300 µM
